Laboratory results taken from patent US5561111A, “Stable glutamine derivatives for oral and intravenous rehydration and nutrition therapy” (The University of Virginia Patent Foundation, priority 1994, dated 1996).
Peptide text beside a SMILES is read from it.

Tested on: rabbit ileal mucosa
Test: Intestinal sodium cotransport in rabbit ileal mucosa mounted in Ussing chambers
Procedure: To study intestinal sodium cotransport using the compounds of the present invention, Ala-Glu and Ala-Gln were tested according to the method of Lima et al, Brazilian J. Med Biol. Res., 25:637-640 (1992) for measuring intestinal sodium cotransport in rabbit ileal mucosa mounted in Ussing chambers. […] As shown the dose response increases dramatically in a non-linear fashion. […] The pD2 value is related to the ED50 in accordance with the following formula: -log ED50 =pD2.

C[C@H](N)C(=O)N[C@@H](CCC(N)=O)C(=O)O [Ala-Gln, alanyl-glutamine] (H-Ala-Gln-OH)
maximum increase (Emax) in Isc: 150 μA/cm^2
